Measurements from patent US20110009416A1, “PH INDEPENDENT FORMULATIONS OF 6-(5-CHLORO-2-PYRIDYL)-5-[(4-METHYL-1-PIPERAZINYL)CARBONYLOXY]-7-OXO-6,7-DIHYDRO-5H-PYRROLO[3,4-b]PYRAZINE” (SEPRACOR INC., priority 2009, published 2011).

Assay: Dissolution over time of uncoated 3 mg eszopiclone tablets (Hanson SR8-Plus apparatus, fiber optic UV at 305 nm)
Type: physicochemical
Protocol: Dissolution over time of eszopiclone free base compounded with various solid acids was compared to that of free base at body temperature (37° C.) in dissolution media at various pH values using Hanson Research SR8—Plus Dissolution Apparatus and C-Technologies Fiber Optic UV Probes at 305 nm (excipients subtracted at 410 nm). The dissolution media used were (a) pH 1 (0.1N HCl) 50 ml of conc HCl mixed in 6 L of water; (b) pH 4.5 acetate buffer (20 mM) 5.88 g of sodium acetate trihydrate dissolved in 6 L of water, pH adjusted to 4.5 with acetic acid; (c) pH 5.5 phosphate buffer (20 mM) 16.3 g of potassium dihydrogen phosphate in 6 L of water. pH adjusted to 5.5 with NaOH; (d) pH 6.8 phosphate buffer (20 mM) 16.3 g of potassium dihydrogen phosphate in 6 L of water. pH adjusted 6.8 with NaOH. A standard dissolution protocol was used. The standard solution (0.006 mg/mL of eszopiclone free base) was prepared by weighing a known amount (−20 mg) of the free base into a 100 mL volumetric flask. 10 mL of acetonitrile was added into the flask and sonicated until the solids dissolved completely. The solution was cooled to room temperature and made up to the 100 mL mark using media and mixed well. Dilute 3 mL to 100 mL using media. The tables were prepared by transferring 500 mL dissolution media into the 6 vessels. Blank readings were taken for all the probes using media. Standards were read for individual vessels. Probes were washed with media and then inserted back into each vessel. […] The dissolution program was started immediately and readings were taken at 305 nm for 60 min (every 1 min for 20 min and then every 10 min)
The following tables display results of dissolution experiments in deionized (DI) water of uncoated tablets formed from 3 mg free base IR eszopiclone (with no more than 0.3% (R)-zopiclone) with various acids. […] The pH values of the media was measured using a pH paper, in-situ at various time points during the dissolution experiment run in deionized (DI) water of uncoated tablets formed from 3 mg free base IR eszopiclone with 12% L-malic acid. […]

CN1CCN(C(=O)O[C@H]2c3nccnc3C(=O)N2c2ccc(Cl)cn2)CC1 [free base, [(9S)-8-(5-chloropyridin-2-yl)-7-oxo-2,5,8-triazabicyclo[4.3.0]nona-1,3,5-trien-9-yl]-4-methyl piperazine-1-carboxylate]
dissolution profile in water (in words) (in water, FIG. 2 and FIG. 4, up to one hour): slow and incomplete
dissolved at one hour (in water, FIG. 4, one hour): less than 50%
dissolution profile at pH 1 (in words) (pH 1, FIG. 3): dissolve rapidly and completely
